Series [1] has as its system fli1:EGFP zebrafish embryos. The experiment in a line: fli1:EGFP zebrafish embryo angiogenesis assay (intersegmental vessel outgrowth and number). Conditions: for Anti-angiogenic activity (loss of ISVs or inhibition of ISV outgrowth): fli1:EGFP embryos, 24 h incubation, result in words; for minimal effective concentration: Danio rerio, 24 h, 24 hpf embryos exposed 24 h, screened 1-200 μg/mL, where no activity was seen the concentration shown is the lowest screened; for Lowest effective anti-angiogenic concentration, fli1:EGFP assay (molar): inhibition of vessel outgrowth and number, 24 h exposure. Type of series: in vivo. The procedure: To determine if our novel thalidomide analogs (Figure 1) had any effect on in vivo angiogenesis, we used fli1:EGFP embryos which express green fluorescent protein (GFP) on endothelial cells throughout development. Embryos were allowed to develop for 24 hours, then exposed to either vehicle or a compound of interest at the concentration range of 1 to 200 μg/mL. During this time the vasculature is rapidly expanding and developing new, naive intersegmental vessels (ISVs). The embryos were imaged after 24 hours of incubation with the drug (Figure 2A). […] We also observed that the potency of each compound varied.
Figure 2 The effect of novel thalidomide analogs on vessel length fli1:EGFP zebrafish were incubated with vehicle or compounds for 24 hours, at which point vessel outgrowth and number were measured. A. Images of zebrafish exposed to the vehicle or test compounds. […] Treatment with C4 (1.5 μg/mL), C18 (50 μg/mL), C81 (50 μg/mL), C82 (5 μg/mL), C83 (20 μg/mL) and C84 (50 μg/mL) show reduction in vessel out growth (white arrow) and in some cases loss of vessel (white asterisks). B. Stalk length & C. stalk number are reduced. Compounds are shown at the lowest concentration producing an effect. The data represent the mean + the standard error of the mean.
Zebrafish embryos were treated with analogs as previously described. Briefly, fli1:EGFP embryos were collected and embryos were allowed to develop for 24 hours. Embryos were dechorionated manually and exposed to test compounds or vehicle control (0.1% DMSO) for a further 24 hours. Embryos were anesthetized with 0.05% MS222 (Tricaine) (Sigma Aldrich) and live visualization of blood vessels was carried out.
(§1) A broad series of novel thalidomide-based compounds were chemically synthesized (WL, NHG and WDF, NIH), dissolved in DMSO, stored in stock concentrations between 10-100 mg/mL, and used at a final working DMSO concentration of 0.1%. The chemical structures of lead compounds of interest were confirmed by chemical characterization (purity >99.5%). Compounds were screened across a range of concentrations from 1-200 μg/mL to determine the lowest effective concentration.

For series [2], the system named is Tg(MPO::EGFP)^114 zebrafish. Description: Tg(MPO::EGFP)^114 zebrafish tail fin clip assay of neutrophil migration to the wound site. Conditions: for minimal effective concentration: Danio rerio, Neutrophil, fin clipped at 72 hpf, imaged at 24 h, screened 1-200 μg/mL, where no activity was seen the concentration shown is the lowest screened; for Effect on neutrophil migration to the wound site (anti-inflammatory activity): fin clipped 72 hpf embryos, result in words. In kind it is in vivo.
Description: To assess the immunomodulatory effects of the thalidomide analogs across the concentration range used in the previous assay, the transgenic zebrafish line Tg(MPO::EGFP)^114 was used. These embryos express GFP tagged myeloperoxidase, marking neutrophils during the inflammatory response, for example following injury. […] This allowed us to subsequently assess the anti-inflammatory activity of each compound by immersing embryos in the test drug or vehicle. The embryos were examined for migration of neutrophils to the wound site. In comparison to control embryos (Figure 3A) compounds with anti-inflammatory properties had reduction of at least 50% of neutrophils recruited to the wound site (Figure 3). […] We also screened the previously identified six anti-angiogenic compounds of interest in the Tg(MPO::EGFP)^114 line.
Figure 3 The effect of thalidomide analogs on the inflammatory response to wound healing A. Zebrafish (72 hpf) embryos transgenic for a fluorescently tagged neutrophil marker Tg(MPO::EGFP)^114 were fin clipped to induce an inflammatory response and exposed to vehicle or a test compound. Broken line indicates the tail fin with cut and area of the wound site. […] The data represent the mean + the standard error of the mean.
Tg(MPO::EGFP)^114 embryos were tail fin clipped as previously detailed and incubated with test compounds or vehicle control at 72 hpf. Fish were imaged at 24 hours and the number of migratory neutrophils present at the wound site were counted. Compounds inducing an at least 50% reduction of neutrophils to the wound site were considered to have anti-inflammatory properties in this system. All larvae were assessed for viability and morphological integrity. A minimum of 10 embryos were used per concentration per drug. Error bars represent standard error of the mean.
as §1

Series [3] has as its system WT Zebrafish. The experiment in a line: WT zebrafish embryo developmental defect (teratogenicity) screen. Type of series: in vivo. Conditions: for Eye development / eye diameter in zebrafish embryos / Pectoral fin development / fin length in zebrafish embryos: Figure 4, result in words; for Lowest effective concentration, WT Zebrafish assay: screened 1-200 μg/mL, where no activity was seen the concentration shown is the lowest screened.

Series [4] deals with chicken embryos. Description: In ovo chicken embryo teratogenicity assay. Type of series: in vivo, white leghorn chicken. The conditions noted are these: for Damage observed: HH stage 17-18 chicken embryos, 100 μg/mL; for Lowest effective concentration, Chicken assay: HH stage 17-18 embryos, where no activity was seen the concentration shown is the lowest screened; for Teratogenicity in these assays: chicken and zebrafish embryo assays together, result in words. The procedure: Compounds of interest were screened in chicken and/or zebrafish embryos (Figure 4), to determine if these compounds are teratogenic. The chicken embryo is well established as a model to determine the action of compounds upon development.
Fertilized white leghorn chicken embryos were incubated at 38°C and staged according to the Hamburger and Hamilton (HH) stages of development. Embryos were tested at HH stage 17-18 (day 2.5). Following membrane removal test compounds or vehicle control solutions were applied over the embryo. The eggs were sealed and the development of the embryos was monitored up to HH stage 30 (E9). A minimum of 3 embryos were used per concentration, per drug.

Where [5] appears, read: applied at HH stage 17-18, result in words.

Entries after “also recorded” stand apart in the source; their conditions may differ.

In general, minimal effective concentration refers to the lowest level tested that produced the effect sought.

As for `O=C1c2c(F)c(F)c(F)c(F)c2C(=O)N1c1ccc(F)cc1F` [CPS49, reference compound], the “Anti-angiogenic activity (loss of ISVs or inhibition of ISV outgrowth)” value in series [1] is “reduction in vessel outgrowth (white arrow), loss of vascular connectivity and a decrease in the number of forming blood vessels”.
For the compound `O=C1c2ccccc2C(=S)N1C1CCC(=S)NC1=S` (stereo not shown) [Compound C4], in series [1], the minimal effective concentration fell in the range of 1.5 to 100 µg/mL; the “Anti-angiogenic activity (loss of ISVs or inhibition of ISV outgrowth)” value is on record as “anti-angiogenic activity”; the “Lowest effective anti-angiogenic concentration, fli1:EGFP assay (molar)” value is 4.9 µM. The minimal effective concentration in series [2] was found to be 10 µg/mL. Also, in series [3], the “Eye development / eye diameter in zebrafish embryos” value is reported as “microopthalmia; also recorded: reductions in eye diameter”; the “Pectoral fin development / fin length in zebrafish embryos” value (shortened to “Pectoral fin development / fin length”) is given as “malformation in fin development”; the “Lowest effective concentration, WT Zebrafish assay” value was 10 µg/mL. In series [4], the Damage observed entry is on record as “Necrotic YSM, hemorrhaging” and the “Lowest effective concentration, Chicken assay” value came to 100 µg/mL. The “Defects in chicken embryo development (text and figure legend)” value (“Defects in chicken embryo development” for short) in series [4] (setting [5]) was “hemorrhaging; also recorded: abnormal blood vessels and necrotic-like regions in the surrounding yolk sac membrane”.
As to `O=C1NC(=S)CCC1N1C(=O)c2cccc([N+](=O)[O-])c2C1=O` (stereo not shown) [Compound C7], in series [1], the minimal effective concentration was 10 µg/mL and the “Anti-angiogenic activity (loss of ISVs or inhibition of ISV outgrowth)” value is recorded as “without anti-angiogenic activities”. Also, in series [2], the minimal effective concentration is 10 µg/mL and the “Effect on neutrophil migration to the wound site (anti-inflammatory activity)” value (from here on “Effect on neutrophil migration”) is “reduced neutrophil migration”. Besides, the “Lowest effective concentration, WT Zebrafish assay” value in series [3] turned out to be 10 µg/mL. In series [4], the “Lowest effective concentration, Chicken assay” value was 100 µg/mL and the “Teratogenicity in these assays” value is “non-teratogenic”. Also, the “Defects in chicken embryo development” value in series [4] (setting [5]) is “no effect”.
With `CC(=O)Oc1ccc2c(c1)C(=O)N(C1CCC(=O)NC1=O)C2=O` (stereo not shown) [Compound C18], the “Anti-angiogenic activity (loss of ISVs or inhibition of ISV outgrowth)” value in series [1] is “anti-angiogenic activity”. For the same compound, in series [2], the minimal effective concentration is 50 µg/mL and the “Effect on neutrophil migration” value was “significantly reduce neutrophil migration”. Also, in series [3], the “Eye development / eye diameter in zebrafish embryos” value is given as “reductions in eye diameter”; the “Pectoral fin development / fin length” value is on record as “reductions”; the “Lowest effective concentration, WT Zebrafish assay” value stood at 50 µg/mL. For the same compound, in series [4], the Damage observed result is given as “Necrotic YSM, stunted growth” and the “Lowest effective concentration, Chicken assay” value is 100 µg/mL. Moreover, the “Defects in chicken embryo development” value in series [4] (setting [5]) was “reduced body size compared to control embryos; also recorded: abnormal blood vessels and necrotic-like regions in the surrounding yolk sac membrane”.
In the case of `Nc1ccc2c(c1)OC(=O)C(C1CCC(=O)NC1=O)C2=O` (stereo not shown) [Compound C24], the minimal effective concentration in series [1] was 50 µg/mL. Besides, in series [2], the minimal effective concentration turned out to be 50 µg/mL and the “Effect on neutrophil migration” value is reported as “reduced neutrophil migration”. The “Lowest effective concentration, WT Zebrafish assay” value in series [3] is 50 µg/mL. In addition, in series [4], the Damage observed entry is “Necrotic YSM, hemorrhaging” and the “Lowest effective concentration, Chicken assay” value was 100 µg/mL. The “Defects in chicken embryo development” value in series [4] (setting [5]) is “abnormal blood vessels and necrotic-like regions in the surrounding yolk sac membrane; also recorded: hemorrhaging and necrotic-like damage in the YSM; also recorded: twisted spinal cords, necrotic-like damage in the YSM and high death rates”.
As to `Nc1cccc2c1CN(C1CCC(=O)NC1=O)C2=S` (stereo not shown) [Compound C29], in series [1], the minimal effective concentration is 10 µg/mL. Moreover, in series [2], the minimal effective concentration was found to be 5 µg/mL and the “Effect on neutrophil migration” value was “reduced neutrophil migration”. In addition, in series [4], the Damage observed entry is “Twisted spines, hemorrhaging” and the “Lowest effective concentration, Chicken assay” value was 100 µg/mL. In addition, in series [4] (setting [5]), the “Defects in chicken embryo development” value was “hemorrhaging and necrotic-like damage in the YSM”. In addition, the “Defects in chicken embryo development” value in series [4] (in vivo) was “twisted spinal cords, necrotic-like damage in the YSM and high death rates”.
As for `O=C1CCC(N2C(=O)c3ccncc3C2=O)C(=O)N1` (stereo not shown) [Compound C58, 5-Aza-thalidomide], in series [1], the minimal effective concentration worked out at 10 µg/mL and the “Anti-angiogenic activity (loss of ISVs or inhibition of ISV outgrowth)” value is “without anti-angiogenic activities”. In addition, in series [2], the minimal effective concentration amounted to 5 µg/mL and the “Effect on neutrophil migration” value is recorded as “reduced neutrophil migration”. In series [2] (fin clipped embryos, Figure 3), the “Migration of neutrophils relative to control” value is 10 % of the control. The “Lowest effective concentration, WT Zebrafish assay” value in series [3] is 5 µg/mL. In addition, in series [4], the “Lowest effective concentration, Chicken assay” value stood at 100 µg/mL and the “Teratogenicity in these assays” value was “non-teratogenic”. Also, the “Defects in chicken embryo development” value in series [4] (setting [5]) was “no effect”.
Consider `O=C1c2ccccc2C(=O)N1c1nc2ccc(C(F)(F)F)cc2s1` [Compound C59], for which, in series [1], the minimal effective concentration is 10 µg/mL and the “Anti-angiogenic activity (loss of ISVs or inhibition of ISV outgrowth)” value is reported as “without anti-angiogenic activities”. In series [2], the minimal effective concentration came out at 100 µg/mL and the “Effect on neutrophil migration” value was “reduced neutrophil migration”. Further, in series [3], the “Lowest effective concentration, WT Zebrafish assay” value was determined as 100 µg/mL. In addition, the “Defects in chicken embryo development” value in series [4] (setting [5]) was “no effect”. The “Teratogenicity in these assays” value in series [4] is “non-teratogenic”.
As for `CC(N1Cc2c(N)cccc2C1=O)C12CC3CC(CC(C3)C1)C2` (stereo not shown) [Compound C81], in series [1], the “Anti-angiogenic activity (loss of ISVs or inhibition of ISV outgrowth)” value is given as “anti-angiogenic activity” and the “Lowest effective anti-angiogenic concentration, fli1:EGFP assay (molar)” value came out at 161.07 µM. In series [2], this compound displayed a minimal effective concentration of 50 µg/mL. For the same compound, in series [3], the “Pectoral fin development / fin length” value was “reductions” and the “Lowest effective concentration, WT Zebrafish assay” value was 10 µg/mL. In series [4], the Damage observed entry is “Hemorrhaging, microopthalmia,” and the “Lowest effective concentration, Chicken assay” value is 100 µg/mL. Further, in series [4] (setting [5]), the “Defects in chicken embryo development” value is “microphthalmia; also recorded: growth reduction and hemorrhaging throughout head”.
With `O=C1c2ccccc2CN1C12CC3CC(CC(O)(C3)C1)C2` [Compound C86], in series [1], the minimal effective concentration is 10 µg/mL and the “Anti-angiogenic activity (loss of ISVs or inhibition of ISV outgrowth)” value was “without anti-angiogenic activities”. Further, in series [2], the minimal effective concentration was determined as 100 µg/mL and the “Effect on neutrophil migration” value is on record as “reduced neutrophil migration”. Besides, in series [4], the “Lowest effective concentration, Chicken assay” value amounted to 100 µg/mL and the “Teratogenicity in these assays” value is “non-teratogenic”. Further, the “Defects in chicken embryo development” value in series [4] (setting [5]) is reported as “no effect”.

The values are drawn from publication PMC5078090, “In vivo screening and discovery of novel candidate thalidomide analogs in the zebrafish embryo and chicken embryo model systems” (Oncotarget, 2016).
